Measurements: patent US7932273B2, “3-[(2-{[4-(hexyloxycarbonylaminoiminomethyl) phenylamino]methyl}-1-methyl-1H-benzimidazol-5-carbonyl)pyridin-2-ylamino]propionic acid ethylester methansulfonate and its use as a medicament” (Boehringer Ingelheim International GmbH, priority 2003, dated 2011)

Experiments:
Assay type in all cases: physicochemical
[1] = amorphization during grinding and compression; details: all three crystalline modifications
[2] = solubility in physiologically acceptable acid aqueous media; details: all three crystalline modifications
[3] = hygroscopicity of the crystalline modifications; details: in all three crystalline modifications (form I, form II, hemihydrate)

amorphization [1]: low amorphization | solubility [2]: dissolves very easily | hygroscopicity [3]: non-hygroscopic
Compound: CCCCCCOC(=O)NC(=N)c1ccc(NCc2nc3cc(C(=O)N(CCC(=O)OCC)c4ccccn4)ccc3n2C)cc1 [methanesulfonate, ethyl 3-[(2-{[4-(hexyloxycarbonylaminoimino-methyl)phenylamino]methyl}-1-methyl-1H-benzimidazole-5-carbonyl)pyridin-2-ylamino]propionate methanesulfonate]
